Measured values reported in the Deep4Chem optical property database.
One block for each molecule: values may come before it.

Experiment: solvent given as SMILES

SMILES: c1ccc(-c2nc(-c3ccccc3)nc(-c3cc(-n4c5ccccc5c5ncccc54)c(-n4c5ccccc5c5ccccc54)c(-n4c5ccccc5c5ncccc54)c3)n2)cc1
absorption maximum (in Cc1ccccc1): 376.56 nm

absorption maximum (in ClC(Cl)Cl): 526 nm
SMILES: CCC1=C(C)C2C(c3ccc(-c4ccc(-c5nc6c7ccccc7c7ccccc7c6n5-c5ccc(C(C)(C)C)cc5)cc4)cc3)c3c(C)c(CC)c(C)n3[B-](F)(F)[N+]2=C1C (centres undefined)

SMILES: COc1ccc(C2=C3C(C)=CC(C=Cc4ccc(C(=O)OC5C[C@H]6CCC5(C)C6(C)C)cc4)=[N+]3[B-](F)(F)n3c(/C=C/c4ccc(C(=O)OC5CC6CCC5(C)C6(C)C)cc4)cc(C)c32)cc1 (some centres undefined)
absorption maximum (in Cc1ccccc1): 640 nm

SMILES: CC(C)(C)c1ccc2c(c1)c1cc(C(C)(C)C)ccc1n2-c1ccc(C(=C(C#N)C#N)c2ccc(-n3c4ccc(C(C)(C)C)cc4c4cc(C(C)(C)C)ccc43)cc2)cc1
absorption maximum (in Cc1ccccc1): 438 nm

absorption maximum (in ClCCl): 361 nm
SMILES: CCOC(=O)c1c(-c2cc3c(ccc4ccccc43)oc2=O)nn(-c2cccc(Cl)c2)c1C(=O)OCC

absorption maximum (in ClC(Cl)Cl): 655 nm
SMILES: CCCCCCCCOc1ccc(-c2c3c4n(c(-c5ccc(OCCCCCCCC)cc5)c3c3n2[B-](F)(F)[n+]2c(sc5ccccc52)N=3)[B-](F)(F)[n+]2c(sc3ccccc32)N=4)cc1

absorption maximum (in C1CCCCC1): 592 nm | absorption maximum (in CCOC(C)=O): 587 nm | absorption maximum (in CO): 585 nm
SMILES: CCCCCCOc1ccc2oc3c(c2c1)=CC1=C(c2ccccc2C)c2cc4c5cc(OCCCCCC)ccc5oc4n2[B-](F)(F)[N+]=31

SMILES: c1ccc(-c2nc(-c3ccccc3)nc(-c3ccc(N4c5ccccc5[Si](c5ccccc5)(c5ccccc5)c5ccccc54)cc3)n2)cc1
absorption maximum (in Cc1ccccc1): 376.66 nm

absorption maximum (in CC#N): 408 nm
SMILES: Oc1ccc2ccccc2c1/C=N/CC/N=C/c1c(O)ccc2ccccc12

SMILES: CCCCCCCCCCCCOc1ccc(C#Cc2ccc(C#Cc3ccc(OCCCCCCCCCCCC)c(OCCCCCCCCCCCC)c3)c3nc4c5ccccc5c5ccccc5c4nc23)cc1OCCCCCCCCCCCC
absorption maximum (in C1CCOC1): 461 nm | absorption maximum (in Cc1ccccc1): 461 nm | absorption maximum (in ClCCl): 461 nm

absorption maximum (in ClC(Cl)Cl): 572 nm
SMILES: COC(=O)c1ccc(C2=C3C(C)=CC(C)=[N+]3[B-](F)(F)n3c(/C=C/c4c[nH]cn4)cc(C)c32)cc1

absorption maximum (in CCCCCC): 345 nm | absorption maximum (in CO): 343 nm | absorption maximum (in ClCCl): 346 nm
SMILES: CC(C)c1ccc2ccc3c(C(C)C)ccc4ccc1c2c43

absorption maximum (in CC1CCCO1): 469 nm
SMILES: O=c1cc2cc(O)c3cccc4ccc(o1)c2c43

absorption maximum (in ClC(Cl)Cl): 410 nm
SMILES: Cc1ccccc1C1CC(=O)Oc2c1c1nc3ccccc3nc1c1ccccc21 (centres undefined)

absorption maximum (in CCOC(C)=O): 347 nm
SMILES: CCCCCCCCCCCCOc1ccc(C#CC(C#Cc2ccc(OCCCCCCCCCCCC)cc2)=Cc2cc(C=C(C#Cc3ccc(OCCCCCCCCCCCC)cc3)C#Cc3ccc(OCCCCCCCCCCCC)cc3)cc(C=C(C#Cc3ccc(OCCCCCCCCCCCC)cc3)C#Cc3ccc(OCCCCCCCCCCCC)cc3)c2)cc1

SMILES: c1ccc(C(=C(c2ccccc2)c2ccc(-c3nc4c(-c5ccc(C(=C(c6ccccc6)c6ccccc6)c6ccccc6)cc5)sc(-c5ccc(C(=C(c6ccccc6)c6ccccc6)c6ccccc6)cc5)c4nc3-c3ccc(C(=C(c4ccccc4)c4ccccc4)c4ccccc4)cc3)cc2)c2ccccc2)cc1
absorption maximum (in Cc1ccccc1): 538 nm | absorption maximum (in ClCCl): 520 nm

absorption maximum (in O): 304 nm
SMILES: O=S(=O)([O-])c1cccc2c(O)cccc12

SMILES: COc1ccc(C2=C(c3ccc(OC)cc3)C(c3ccccc3)=[N+]3C2=Nc2c(-c4ccc(OC)cc4)c(-c4ccc(OC)cc4)c(-c4ccccc4)n2[B-]3(F)F)cc1
absorption maximum (in Cc1ccccc1): 654 nm

absorption maximum (in ClCCl): 731 nm
SMILES: O=c1c2ccccc2c2nc3cc4c(C#C[Si](C5CCCCC5)(C5CCCCC5)C5CCCCC5)c5cc6nc7c8ccccc8c(=O)c8ccccc8c7nc6cc5c(C#C[Si](C5CCCCC5)(C5CCCCC5)C5CCCCC5)c4cc3nc2c2ccccc12

absorption maximum (in ClC(Cl)Cl): 364 nm
SMILES: c1ccc2c(c1)-c1ccccc1C21c2cc(-c3ccc4ccc5cccc6ccc3c4c56)ccc2-c2ccc(-c3ccc4ccc5cccc6ccc3c4c56)cc21

SMILES: CC[N+]1(CC)CN2C(=N1)C(C(=O)O)=Cc1cc(F)ccc12
absorption maximum (in O): 375 nm

absorption maximum (in C1CCCCC1): 459 nm
SMILES: C[Si](C)(C)C#Cc1ccc2c3cccc4cccc(c5cccc1c52)c43
